Test results reported in PMC7300217, “Surfactin Like Broad Spectrum Antimicrobial Lipopeptide Co-produced With Sublancin From Bacillus subtilis Strain A52: Dual Reservoir of Bioactives” (Frontiers in Microbiology, 2020).
Converted amounts (≈) assume the structure as drawn.

Tests used:
[1] = tested on: skin of BALB/c female mice; experiment: Skin irritation study (Draize test); assay type: in vivo; conditions: topical, about 1 cm^2 hairless dorsal skin, score 0 none, 1 slight, 2 moderate, 3 severe, mean
Experimental: Skin irritation potential of lipopetide based emulgel formulation was evaluated by carrying out skin irritancy test using 8 weeks old BALB/c female mice ([Draize et al., 1944]). Mice dorsal surface hair was removed without damaging the skin surface about 24 h prior to the experiment. Mice were divided into three groups (n = 3): […] Group II: plain gel (negative control); and Group III: […] emulgel. The formulation was topically applied to the hairless skin area (approximately 1 cm^2) and observations were recorded at 24, 48, and 72 h.

F. moniliforme MTCC 158 = experiment: MIC against phytopathogenic fungi, 96-well microtiter plate assay; assay type: cell-based, Fusarium moniliforme; conditions: Fusarium verticillioides, MTCC158; 1 × 10^5 spores/ml in PDB, 25°C, OD600 after 48 h, triplicate
Experimental: (§1) The antimicrobial activity was tested by well diffusion assay as mentioned earlier ([Singh et al., 2014]). Strain A52 was grown for 24 h in 500 ml of nutrient broth (NB, Hi-media, India) using 1000 ml flask and subsequently cells were removed by centrifugation (10,000 rpm for 15 min at 4°C). Supernatant was filtered through 0.22 μm filter (Millipore, United States) to obtain cell-free fermented broth (CFB) that was used for antimicrobial assay (50 μl) against various indicator strains and the activity was measured as diameter of inhibition zone. Test strains used were Staphylococcus aureus (MTCC 1430), Bacillus subtilis (MTCC 121), B. firmus (MTCC 488), B. licheniformis (MTCC 429), B. thuringiensis (MTCC 1953), Escherichia coli (MTCC 1610), Micrococcus luteus (MTCC 106), Steptococcus pyrogens (MTCC 1928), S. anginosus (MTCC 1929), S. oralis (MTCC 2696), S. mutans (MTCC 497), Candida albicans (MTCC 1637), C. albicans (MTCC 183), C. albicans (MTCC 227), C. tropicalis (MTCC 184), C. glabrata (MTCC 3019), C. haemulonii (MTCC 2766), and C. inconsplicue (MTCC 1074). The phytopathogenic fungi employed in this study were Alternaria brassicicola (MTCC 2102), Colletotrichum acutatum (MTCC 1037), and Fusarium moniliforme (MTCC 158). Clinical isolates of Candida were provided by National Culture Collection of Pathogenic Fungi (NCCPF), PGIMER, Chandigarh, India.
The minimum inhibitory concentration (MIC) of HPLC purified peptides was evaluated by using microtiter plate dilution assay. The peptide concentration was estimated using BCA protein assay (Thermo Fisher Scientific, United States) method as described by manufacturer. […] OD was measured at 600 nm after 24 and 48 h for bacteria and yeast, respectively, using ELISA microplate reader (Thermo, United States). MIC against phytopathogenic fungi was determined using 96-well microtiter plate assay ([Kaur et al., 2016]). […] The microplates were incubated at 25°C and readings were recorded at 600 nm after 48 h. […]

[2] = tested on: C. krusei 440009 (clinical isolate); experiment: MIC, microtiter plate dilution assay; assay type: cell-based; conditions: Pichia kudriavzevii, 5 × 10^5 CFU/ml, 37°C, OD600 after 48 h, triplicate
Experimental: as §1
(§2) The minimum inhibitory concentration (MIC) of HPLC purified peptides was evaluated by using microtiter plate dilution assay. The peptide concentration was estimated using BCA protein assay (Thermo Fisher Scientific, United States) method as described by manufacturer. Actively growing test strains (5 × 10^5 CFU/ml) were inoculated in a 96-well plate with different concentrations of the peptides and plates were incubated for 24–48 h at 37°C (final volume in each well is 200 μl). OD was measured at 600 nm after 24 and 48 h for bacteria and yeast, respectively, using ELISA microplate reader (Thermo, United States). MIC against phytopathogenic fungi was determined using 96-well microtiter plate assay ([Kaur et al., 2016]). In 96-well microplates, 100 μl of fungal spore suspension (1 × 10^5 spores/ml) prepared in potato dextrose broth (PDB, Hi-media, India) was mixed with100 μl of fresh PDB containing different concentrations of lipopeptide. Control well contained 100 μl of fungal spore suspension and 100 μl of only medium. The microplates were incubated at 25°C and readings were recorded at 600 nm after 48 h. The lowest concentration showing no growth was considered as MIC. Each test was done in triplicate and optical density (OD600) of peptide treated wells were compared with uninoculated wells (blank medium control).

[3] = tested on: C. inconsplicue MTCC 1074; experiment: MIC, microtiter plate dilution assay; assay type: cell-based; conditions: 5 × 10^5 CFU/ml, 37°C, OD600 after 48 h, triplicate
Experimental: as §1, §2

[4] = tested on: C. rugos 470141 (clinical isolate); experiment: MIC, microtiter plate dilution assay; assay type: cell-based; conditions: 5 × 10^5 CFU/ml, 37°C, OD600 after 48 h, triplicate
Experimental: as §1, §2

[5] = tested on: C. parasilosis 450030 (clinical isolate); experiment: MIC, microtiter plate dilution assay; assay type: cell-based; conditions: 5 × 10^5 CFU/ml, 37°C, OD600 after 48 h, triplicate
Experimental: as §1, §2

C. albicans MTCC 183 = experiment: MIC, microtiter plate dilution assay; assay type: cell-based, Candida albicans; conditions: Candida albicans, MTCC183; 5 × 10^5 CFU/ml, 37°C, OD600 after 48 h, triplicate
Experimental: as §1, §2

SMILES	Erythema score (n=3), 0 h [1]	Erythema score (n=3), 24h [1]	Erythema score (n=3), 48h [1]	Erythema score (n=3), 72h [1]	MIC (F. moniliforme MTCC 158) [µg/mL]	MIC [2] [µg/mL]	MIC [3] [µg/mL]	MIC [4] [µg/mL]	MIC [5] [µg/mL]	MIC (C. albicans MTCC 183) [µg/mL]
CCCCCCCCCCCCOS(=O)(=O)[O-].[Na+] [Positive Control, sodium lauryl sulfate]	0	3	3	3	–	–	–	–	–	–
OC(Cn1cncn1)(Cn1cncn1)c1ccc(F)cc1F [Fluconazole]	–	–	–	–	10 (≈ 32.7 µM)	1 (≈ 3.27 µM)	50 (≈ 163 µM)	5 (≈ 16.3 µM)	10 (≈ 32.7 µM)	20 (≈ 65.3 µM)
